{
  "source": "ChEMBL document CHEMBL2429721",
  "about": "“Novel 2,6-bis(4-methoxyphenyl)-1-methylpiperidin-4-one oxime esters: synthesis and a new insight into their antioxidant and antimicrobial potential” (Med Chem Res, 2013)",
  "type_in_all_cases": "functional",
  "key": {"[1]": {"system": "Candida albicans", "assay": "Antifungal activity against Candida albicans MTCC 3017 assessed as growth inhibition at 1000 ug/mL after 72 hrs by agar well plate method", "details": "MTCC 3017, 72 h, read-out: DIZ"}, "[2]": {"assay": "Antifungal activity against Chrysosporium keratinophilum MTCC 2827 assessed as growth inhibition at 1000 ug/mL after 72 hrs by agar well plate method"}, "[3]": {"system": "Pseudomonas aeruginosa", "assay": "Antibacterial activity against Pseudomonas aeruginosa ATCC 27853 assessed as growth inhibition at 1000 ug/mL after 24 hrs by agar well plate method", "details": "ATCC 27853, 24 h, read-out: DIZ"}, "[4]": {"assay": "Antioxidant activity assessed as cupric ion reducing activity at 10 uM after 30 mins by CUPRAC assay"}, "[5]": {"system": "Escherichia coli", "assay": "Antibacterial activity against Escherichia coli ATCC 25922 assessed as growth inhibition at 1000 ug/mL after 24 hrs by agar well plate method", "details": "ATCC 25922, 24 h, read-out: DIZ"}, "[6]": {"system": "Aspergillus flavus", "assay": "Antifungal activity against Aspergillus flavus MTCC 3306 assessed as growth inhibition at 1000 ug/mL after 72 hrs by agar well plate method", "details": "MTCC 3306, 72 h, read-out: DIZ"}, "[7]": {"assay": "Antioxidant activity assessed as ferric ion reducing activity at 10 uM after 20 mins by FRAP assay"}, "[8]": {"system": "Staphylococcus aureus", "assay": "Antibacterial activity against Staphylococcus aureus ATCC 25923 assessed as growth inhibition at 500 ug/mL after 24 hrs by agar well plate method", "details": "ATCC 25923, 24 h, read-out: DIZ"}, "[9]": {"system": "Staphylococcus aureus", "assay": "Antibacterial activity against Staphylococcus aureus ATCC 25923 assessed as growth inhibition at 1000 ug/mL after 24 hrs by agar well plate method", "details": "ATCC 25923, 24 h, read-out: DIZ"}, "[10]": {"system": "Candida albicans", "assay": "Antifungal activity against Candida albicans MTCC 3017 assessed as growth inhibition at 500 ug/mL after 72 hrs by agar well plate method", "details": "MTCC 3017, 72 h, read-out: DIZ"}, "[11]": {"system": "Aspergillus flavus", "assay": "Antifungal activity against Aspergillus flavus MTCC 3306 assessed as growth inhibition at 500 ug/mL after 72 hrs by agar well plate method", "details": "MTCC 3306, 72 h, read-out: DIZ"}, "[12]": {"assay": "Antifungal activity against Chrysosporium keratinophilum MTCC 2827 assessed as growth inhibition at 500 ug/mL after 72 hrs by agar well plate method"}, "[13]": {"system": "Escherichia coli", "assay": "Antibacterial activity against Escherichia coli ATCC 25922 assessed as growth inhibition at 500 ug/mL after 24 hrs by agar well plate method", "details": "ATCC 25922, 24 h, read-out: DIZ"}, "[14]": {"assay": "Antioxidant activity assessed as ABTS free radical scavenging activity after 30 mins"}, "[15]": {"system": "Pseudomonas aeruginosa", "assay": "Antibacterial activity against Pseudomonas aeruginosa ATCC 27853 assessed as growth inhibition at 500 ug/mL after 24 hrs by agar well plate method", "details": "ATCC 27853, 24 h, read-out: DIZ"}, "[16]": {"system": "Radical scavenging activity", "assay": "Antioxidant activity assessed as DPPH free radical scavenging activity after 20 mins by UV-visible spectrophotometric analysis"}},
  "note": "pIC50: −log10 of the molar value.",
  "data": [
    {"smiles": "COc1ccc(C2CC(=NOC(=O)c3ccccc3)CC(c3ccc(OC)cc3)N2C)cc1", "note": "(stereo not given)", "values": [
      {"measurement": "zone of inhibition at 1000 µg/mL", "setting": "[1]", "value": 3, "unit": "mm"},
      {"measurement": "inhibition zone (IZ)", "setting": "[2]", "value": 2, "unit": "mm"},
      {"measurement": "zone of inhibition at 1000 µg/mL", "setting": "[3]", "value": 2, "unit": "mm"},
      {"measurement": "Activity", "setting": "[4]", "value": 0.111},
      {"measurement": "zone of inhibition at 1000 µg/mL", "setting": "[5]", "value": 2, "unit": "mm"},
      {"measurement": "zone of inhibition at 1000 µg/mL", "setting": "[6]", "value": 1, "unit": "mm"},
      {"measurement": "Activity", "setting": "[7]", "value": 0.132},
      {"measurement": "zone of inhibition at 500 µg/mL", "setting": "[8]", "value": 2, "unit": "mm"},
      {"measurement": "zone of inhibition at 1000 µg/mL", "setting": "[9]", "value": 3, "unit": "mm"},
      {"measurement": "zone of inhibition at 500 µg/mL", "setting": "[10]", "value": 2, "unit": "mm"},
      {"measurement": "zone of inhibition at 500 µg/mL", "setting": "[11]", "value": 1, "unit": "mm"},
      {"measurement": "inhibition zone (IZ)", "setting": "[12]", "value": 1, "unit": "mm"},
      {"measurement": "zone of inhibition at 500 µg/mL", "setting": "[13]", "value": 1, "unit": "mm"},
      {"measurement": "pIC50", "setting": "[14]", "value": 3.43},
      {"measurement": "zone of inhibition at 500 µg/mL", "setting": "[15]", "value": 1, "unit": "mm"},
      {"measurement": "pIC50", "setting": "[16]", "value": 3.82}
    ]},
    {"smiles": "COc1ccc(C2CC(=NOC(=O)c3cccc(O)c3)CC(c3ccc(OC)cc3)N2C)cc1", "note": "(stereo not given)", "values": [
      {"measurement": "zone of inhibition at 1000 µg/mL", "setting": "[1]", "value": 3, "unit": "mm"},
      {"measurement": "inhibition zone (IZ)", "setting": "[2]", "value": 1, "unit": "mm"},
      {"measurement": "zone of inhibition at 1000 µg/mL", "setting": "[3]", "value": 5, "unit": "mm"},
      {"measurement": "Activity", "setting": "[4]", "value": 0.265},
      {"measurement": "zone of inhibition at 1000 µg/mL", "setting": "[5]", "value": 6, "unit": "mm"},
      {"measurement": "zone of inhibition at 1000 µg/mL", "setting": "[6]", "value": 1, "unit": "mm"},
      {"measurement": "Activity", "setting": "[7]", "value": 0.321},
      {"measurement": "zone of inhibition at 500 µg/mL", "setting": "[8]", "value": 4, "unit": "mm"},
      {"measurement": "zone of inhibition at 1000 µg/mL", "setting": "[9]", "value": 6, "unit": "mm"},
      {"measurement": "zone of inhibition at 500 µg/mL", "setting": "[10]", "value": 1, "unit": "mm"},
      {"measurement": "zone of inhibition at 500 µg/mL", "setting": "[11]", "value": 0, "unit": "mm"},
      {"measurement": "inhibition zone (IZ)", "setting": "[12]", "value": 0, "unit": "mm"},
      {"measurement": "zone of inhibition at 500 µg/mL", "setting": "[13]", "value": 5, "unit": "mm"},
      {"measurement": "pIC50", "setting": "[14]", "value": 4.47},
      {"measurement": "zone of inhibition at 500 µg/mL", "setting": "[15]", "value": 3, "unit": "mm"},
      {"measurement": "pIC50", "setting": "[16]", "value": 4.68}
    ]},
    {"smiles": "COc1ccc(C2CC(=NOC(=O)c3ccccc3OC(C)=O)CC(c3ccc(OC)cc3)N2C)cc1", "note": "(stereo not given)", "values": [
      {"measurement": "zone of inhibition at 1000 µg/mL", "setting": "[1]", "value": 4, "unit": "mm"},
      {"measurement": "inhibition zone (IZ)", "setting": "[2]", "value": 3, "unit": "mm"},
      {"measurement": "zone of inhibition at 1000 µg/mL", "setting": "[3]", "value": 5, "unit": "mm"},
      {"measurement": "Activity", "setting": "[4]", "value": 0.131},
      {"measurement": "zone of inhibition at 1000 µg/mL", "setting": "[5]", "value": 4, "unit": "mm"},
      {"measurement": "zone of inhibition at 1000 µg/mL", "setting": "[6]", "value": 2, "unit": "mm"},
      {"measurement": "Activity", "setting": "[7]", "value": 0.179},
      {"measurement": "zone of inhibition at 500 µg/mL", "setting": "[8]", "value": 2, "unit": "mm"},
      {"measurement": "zone of inhibition at 1000 µg/mL", "setting": "[9]", "value": 5, "unit": "mm"},
      {"measurement": "zone of inhibition at 500 µg/mL", "setting": "[10]", "value": 5, "unit": "mm"},
      {"measurement": "zone of inhibition at 500 µg/mL", "setting": "[11]", "value": 1, "unit": "mm"},
      {"measurement": "inhibition zone (IZ)", "setting": "[12]", "value": 2, "unit": "mm"},
      {"measurement": "zone of inhibition at 500 µg/mL", "setting": "[13]", "value": 2, "unit": "mm"},
      {"measurement": "pIC50", "setting": "[14]", "value": 3.46},
      {"measurement": "zone of inhibition at 500 µg/mL", "setting": "[15]", "value": 4, "unit": "mm"},
      {"measurement": "pIC50", "setting": "[16]", "value": 3.88}
    ]},
    {"smiles": "COc1ccc(C2CC(=NOC(=O)c3ccc(C)cc3)CC(c3ccc(OC)cc3)N2C)cc1", "note": "(stereo not given)", "values": [
      {"measurement": "zone of inhibition at 1000 µg/mL", "setting": "[1]", "value": 2, "unit": "mm"},
      {"measurement": "inhibition zone (IZ)", "setting": "[2]", "value": 1, "unit": "mm"},
      {"measurement": "zone of inhibition at 1000 µg/mL", "setting": "[3]", "value": 2, "unit": "mm"},
      {"measurement": "Activity", "setting": "[4]", "value": 0.127},
      {"measurement": "zone of inhibition at 1000 µg/mL", "setting": "[5]", "value": 3, "unit": "mm"},
      {"measurement": "zone of inhibition at 1000 µg/mL", "setting": "[6]", "value": 2, "unit": "mm"},
      {"measurement": "Activity", "setting": "[7]", "value": 0.154},
      {"measurement": "zone of inhibition at 500 µg/mL", "setting": "[8]", "value": 1, "unit": "mm"},
      {"measurement": "zone of inhibition at 1000 µg/mL", "setting": "[9]", "value": 3, "unit": "mm"},
      {"measurement": "zone of inhibition at 500 µg/mL", "setting": "[10]", "value": 1, "unit": "mm"},
      {"measurement": "zone of inhibition at 500 µg/mL", "setting": "[11]", "value": 1, "unit": "mm"},
      {"measurement": "inhibition zone (IZ)", "setting": "[12]", "value": 2, "unit": "mm"},
      {"measurement": "zone of inhibition at 500 µg/mL", "setting": "[13]", "value": 1, "unit": "mm"},
      {"measurement": "pIC50", "setting": "[14]", "value": 3.43},
      {"measurement": "zone of inhibition at 500 µg/mL", "setting": "[15]", "value": 2, "unit": "mm"},
      {"measurement": "pIC50", "setting": "[16]", "value": 3.84}
    ]},
    {"smiles": "COc1ccc(C2CC(=NOC(=O)c3cc(O)cc(O)c3)CC(c3ccc(OC)cc3)N2C)cc1", "note": "(stereo not given)", "values": [
      {"measurement": "zone of inhibition at 1000 µg/mL", "setting": "[1]", "value": 3, "unit": "mm"},
      {"measurement": "inhibition zone (IZ)", "setting": "[2]", "value": 0, "unit": "mm"},
      {"measurement": "zone of inhibition at 1000 µg/mL", "setting": "[3]", "value": 5, "unit": "mm"},
      {"measurement": "Activity", "setting": "[4]", "value": 0.363},
      {"measurement": "zone of inhibition at 1000 µg/mL", "setting": "[5]", "value": 3, "unit": "mm"},
      {"measurement": "zone of inhibition at 1000 µg/mL", "setting": "[6]", "value": 1, "unit": "mm"},
      {"measurement": "Activity", "setting": "[7]", "value": 0.352},
      {"measurement": "zone of inhibition at 500 µg/mL", "setting": "[8]", "value": 4, "unit": "mm"},
      {"measurement": "zone of inhibition at 1000 µg/mL", "setting": "[9]", "value": 4, "unit": "mm"},
      {"measurement": "zone of inhibition at 500 µg/mL", "setting": "[10]", "value": 3, "unit": "mm"},
      {"measurement": "zone of inhibition at 500 µg/mL", "setting": "[11]", "value": 0, "unit": "mm"},
      {"measurement": "inhibition zone (IZ)", "setting": "[12]", "value": 1, "unit": "mm"},
      {"measurement": "zone of inhibition at 500 µg/mL", "setting": "[13]", "value": 4, "unit": "mm"},
      {"measurement": "pIC50", "setting": "[14]", "value": 4.72},
      {"measurement": "zone of inhibition at 500 µg/mL", "setting": "[15]", "value": 4, "unit": "mm"},
      {"measurement": "pIC50", "setting": "[16]", "value": 4.92}
    ]}
  ]
}
